Experimental data: patent US12065427B2, “Heterocyclic compounds capable of activating STING” (BOEHRINGER INGELHEIM INTERNATIONAL GMBH, priority 2021, dated 2024)

Key:
STING R293Q-variant = target: T1, STING R293Q-variant (Homo sapiens, UniProt Q86WV6, H232R/R293Q); assay: IRF-inducible SEAP reporter assay in THP1-Blue ISG cells, STING R293Q-variant; type: cell-based; details: 24 hours incubation
T1 construct: expressed in transfected cells; host or cells: THP1-Blue ISG hSTING KO clone, retroviral MSCV-ires-GFP-Blasti
T1 sequence (Q86WV6 whole entry H232R/R293Q): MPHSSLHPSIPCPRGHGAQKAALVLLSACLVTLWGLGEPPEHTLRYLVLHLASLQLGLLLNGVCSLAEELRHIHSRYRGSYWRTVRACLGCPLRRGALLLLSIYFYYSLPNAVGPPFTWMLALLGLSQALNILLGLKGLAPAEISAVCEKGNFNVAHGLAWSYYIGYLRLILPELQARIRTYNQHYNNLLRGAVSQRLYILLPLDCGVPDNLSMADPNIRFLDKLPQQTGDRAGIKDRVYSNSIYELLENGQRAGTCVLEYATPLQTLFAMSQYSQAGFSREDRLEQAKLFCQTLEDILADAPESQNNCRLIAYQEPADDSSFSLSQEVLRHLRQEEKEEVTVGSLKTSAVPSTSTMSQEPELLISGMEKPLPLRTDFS
Excerpt: (§1) In Vitro Cytokine Induction Measured Via Activation of an Interferon Regulatory Factor Inducible Reporter Gene
(§2) Activation of the STING protein expressed in cell lines results in an increase of interferon production. By the stable integration of an interferon regulatory factor (IRF)-inducible SEAP gene (secreted embryonic alkaline phosphatase) reporter construct the functional interferon signaling pathway can be monitored. Using Invivogen's THP1-Blue™ ISG colorimetric enzyme assay and a suitable optical density (OD) reader the activity of SEAP can be detected and quantified. This technique could be used to characterize pharmacological modification of the STING pathway.
(§3) Several single nucleotide polymorphisms have been identified in the human STING gene. To determine the activity of the above described compounds, THP1-Blue™ ISG reporter cell lines expressing the different human STING variants have been generated. To do so, the endogenous human STING was first deleted using the CRISPR/CAS9 system: THP1-Blue ISG cells were electroporated with ALL-IN-ONE CRISPR plasmids targeting the STING gene (purchased from Sigma encoding the gRNA and GFP as a reporter gene for successful transduction). GFP positive cells then were sorted 24 h post transfection and expanded. Cells were then dispersed in semisolid methocel medium to allow single cell clone isolations. Clones were then screened for cGAMP responsiveness using the Quanti-Blue™ reporter assay. Non-responsive clones were subsequently analysed for STING loss by western blotting and sequencing of the STING locus.
(§4) For the overexpression of the human STING variants, a confirmed THP1-Blue™ ISG hSTING KO clone was transduced with individual retroviral plasmids (MSCV-ires-GFP-Blasti) encoding the allelic variants of hSTING (WT (H232R), HAQ, R232H, AQ and R293Q). Transduced cells were sorted for different levels of GFP fluorescence and STING allele expression was analysed by western blot.
(§5) Measurements of SEAP activity were performed in THP1-Blue™ ISG cells stably expressing the different human STING isoforms and the IRF-inducible SEAP reporter construct. Cells were cultivated in RPMI1640 medium with 10% fetal calf serum, 50 μg/ml Penicillin-Streptomycin, 100 μg/ml Zeocin, and 100 μg/ml Normocin in a 37°, 95% humidity and 5% CO2 incubator.
(§6) In preparation for the assay, the cells were distributed into the assay plates with a density of 10000 cells/15 μL per well. Compounds were prepared by an 8 point serial dilution in 50% aqueous DMSO and a final dilution step into medium to ensure a final DMSO concentration of 0.5% in the assay. 5 μL of diluted compounds were added to the plates, followed by a 24 hours incubation at 37° C.
(§7) At the day of the assay, 75 μl per well of Quanti-Blue™ reagent was added to all wells of the plate and the plate was incubated another 30 minutes at 37° C. The OD at 620 nm was measured on the EnVision reader (PerkinElmer).
(§8) EC50 values and Hill slopes were derived from 8-point four parametric non-linear curve fittings with the Megalab software (Boehringer Ingelheim) using the OD at 620 nm.
(§9) Data of EC50 values can be found in tables 2a-2e.
Data of EC50 values on STING R293Q-variant can be found in table 2d: […]

STING HAQ-variant = target: T2, STING HAQ-variant (Homo sapiens, UniProt Q86WV6, G230A/H232R/R293Q/R71H); assay: IRF-inducible SEAP reporter assay in THP1-Blue ISG cells, STING HAQ-variant; type: cell-based; details: STING HAQ-variant (parental or re-introduced), 24 hours incubation
T2 construct: parental THP1-Blue™ ISG cell lines (which express endogenously HAQ); host or cells: THP1-Blue ISG (parental, endogenous HAQ) or STING-KO clone re-transduced with HAQ (MSCV-ires-GFP-Blasti)
T2 sequence (Q86WV6 whole entry R71H/G230A/H232R/R293Q): as the sequence (Q86WV6 whole entry H232R/R293Q) above, with R71H, G230A counted along it
Excerpt: as §1, §2, §3, §4, §5, §6, §7, §8, §9
Data of EC50 values on STING HAQ-variant can be found in table 2a. Shown data below were either derived from the parental THP1-Blue™ ISG cell lines (which express endogenously HAQ) or from genetically engineered THP1-Blue™ ISG cell lines in which first STING has been knocked-out and the HAQ specific STING isoform has been re-introduced as described above.

STING R232H-variant = target: T3, STING R232H-variant (Homo sapiens, UniProt Q86WV6); assay: IRF-inducible SEAP reporter assay in THP1-Blue ISG cells, STING R232H-variant; type: cell-based; details: 24 hours incubation
T3 construct: expressed in transfected cells; host or cells: THP1-Blue ISG hSTING KO clone, retroviral MSCV-ires-GFP-Blasti
T3 sequence (Q86WV6 whole entry, stated change not applied): as the sequence (Q86WV6 whole entry H232R/R293Q) above, with R232H, Q293R counted along it
Excerpt: as §1, §2, §3, §4, §5, §6, §7, §8, §9
Data of EC50 values on STING R232H-variant can be found in table 2c: […]

STING H232R-variant = target: T4, STING H232R-variant (Homo sapiens, UniProt Q86WV6, H232R); assay: IRF-inducible SEAP reporter assay in THP1-Blue ISG cells, STING H232R-variant; type: cell-based; details: STING H232R-variant (WT), 24 hours incubation
T4 construct: expressed in transfected cells; host or cells: THP1-Blue ISG hSTING KO clone, retroviral MSCV-ires-GFP-Blasti
T4 sequence (Q86WV6 whole entry H232R): as the sequence (Q86WV6 whole entry H232R/R293Q) above, with Q293R counted along it
Excerpt: as §1, §2, §3, §4, §5, §6, §7, §8, §9
Data of EC50 values on STING H232R-variant can be found in table 2b: […]

[1] = system: Human STING (hSTING, residues 155-341); assay: Interaction with hSTING as determined by Differential Scanning Fluorimetry (DSF); type: binding; details: 100 μM test compounds, 5 μM target protein
Method: Interaction with hSTING as Determined by Differential Scanning Fluorimetry (DSF)
In DSF, the temperature at which a protein unfolds, also called the melting temperature Tm, is measured by changes in fluorescence of a dye that binds to the hydrophobic parts of the protein. Tm shifts upon binding of a small molecule are correlated with the binding affinity of this small molecule. As target protein, Human STING (hSTING, residues 155-341, MW: 21578.4 Da; protein stock solution: c=1302 μM stock solution in 20 mM Tris, 100 mM NaCl, 2 mM TCEP pH 8.8) was used, as assay buffer 20 mM Tris, 150 mM NaCI pH7.5 was added where and as necessary.
Final concentrations of components in assay: 100 μM test compounds, 5 μM target protein, “5×” SYPR Orange (from stock solution SYPRO orange solution in DMSO (invitrogen cat.-no. S6650-500 ul), concentration “5000×”)
1) Dilutions of compound stock solutions (10 mM in DMSO) were prepared in assay buffer (20 mM Tris, 150 mM NaCl; pH7.5)
2) 5 μl fluorescent dye stock solution (5000×SYPRO Orange in DMSO) was mixed with 19 μl target protein (1302 μM) and 976 μl assay buffer.
3) 2 μl of this protein-dye-mixture (25×SYPRO Orange and 25 μM Protein) was added to 8 μl diluted compound solution as prepared in step 1. Final volume was 10 μl.
4) With every 20 compounds, two negative controls were measured.
5) The plates were prepared for duplicate measurement and centrifuged for 2 min at 1000 g.
6) For the measurement, a CFX384 Real-Time System (Bio-Rad) was used. The run consisted of 140 cycles with 0.5° C./cycle (temperature ramp 15 s/cycle, 25° C. to 95° C.).
Data analysis: The melting curves were processed in Bio-Rad CFX Manager. Peak type was set to “negative”. Two replicates of TM (melting temperature) measurements were averaged and the standard deviation was calculated.

STING AQ-variant = target: T5, STING AQ-variant (Homo sapiens, UniProt Q86WV6, G230A/H232R/R293Q); assay: IRF-inducible SEAP reporter assay in THP1-Blue ISG cells, STING AQ-variant; type: cell-based; details: 24 hours incubation
T5 construct: expressed in transfected cells; host or cells: THP1-Blue ISG hSTING KO clone, retroviral MSCV-ires-GFP-Blasti
T5 sequence (Q86WV6 whole entry G230A/H232R/R293Q): as the sequence (Q86WV6 whole entry H232R/R293Q) above, with G230A counted along it
Excerpt: as §1, §2, §3, §4, §5, §6, §7, §8, §9
Data of EC50 values on STING AQ-variant can be found in table 2e: […]

in vitro = details: human, Caco-2, pH 7.4

Structure (SMILES)	EC50 (STING R293Q-variant) [nM]	EC50 (STING HAQ-variant) [nM]	EC50 (STING R232H-variant) [nM]	EC50 (STING H232R-variant) [nM]	EC50 (STING AQ-variant) [nM]	Papp A→B at 10 μM (in vitro) [×10⁻⁶ cm/s]	efflux ratio at 10 μM (in vitro)	thermal shift (ΔTm) [1] [K]
Cc1cccc2c(-c3cccc4nn(C)cc34)nn(-c3ccc(N4CC5C(C4)C5C(N)=O)nc3)c12 (stereo not shown) [compound 72, 3-(5-{2′,7-dimethyl-1H,2′H-[3,4′-biindazol]-1-yl}pyridin-2-yl)-3-azabicyclo[3.1.0]hexane-6-carboxamide]	700	1800	300	600	800	–	–	18
Cc1cccc2c(-c3cccc4nn(C)cc34)nn(-c3ccc(NCc4cncnc4)nc3)c12 [compound 24, 5-{2′,7-dimethyl-1H,2′H-[3,4′-biindazol]-1-yl}-N-[(pyrimidin-5-yl)methyl]pyridin-2-amine]	2200	2700	2300	2000	–	–	–	–
Cc1cccc2c(-c3cccc4nn(C)cc34)nn(-c3ccc(N4CC5(CN(C=O)C5)C4)nc3)c12 [compound 54, 6-(5-{2′,7-dimethyl-1H,2′H-[3,4′-biinda-zol]-1-yl}pyridin-2-yl)-2,6-diaza-spiro[3.3]heptane-2-carbaldehyde]	–	2100	–	300	5300	38	0.8	21
Cc1cccc2c(-c3cccc4nn(C)cc34)nn(-c3ccc(N4CCn5cncc5C4)nc3)c12 [compound 12, 1-(6-{5H,6H,7H,8H-imidazo[1,5-a]pyrazin-7-yl}pyridin-3-yl)-2′,7-dimethyl-1H,2'H-3,4′-biindazole]	2100	1900	600	400	–	11	0.4	21

These reach a lower EC50 (STING HAQ-variant). Values come first.

EC50 (STING R293Q-variant) [nM]	EC50 (STING HAQ-variant) [nM]	EC50 (STING R232H-variant) [nM]	EC50 (STING H232R-variant) [nM]	EC50 (STING AQ-variant) [nM]	Papp A→B at 10 μM (in vitro) [×10⁻⁶ cm/s]	efflux ratio at 10 μM (in vitro)	Structure (SMILES)	thermal shift (ΔTm) [1] [K]
500	700	600	200	–	–	–	Cn1cc2c(-c3nn(-c4ccc(N5CC6C(C5)C6C(=O)O)nc4)c4c(Br)cccc34)cccc2n1 (stereo not shown) [compound 64, 3-(5-{7-bromo-2′-methyl-1H,2′H-[3,4′-biindazol]-1-yl}pyridin-2-yl)-3-azabicy-clo[3.1.0]hexane-6-car-boxylic acid]	–
1200	1400	1000	500	–	–	–	Cc1cccc2c(-c3cccc4nn(C)cc34)nn(-c3ccc(N4CCS(=O)(=O)CC4)nc3)c12 [Example #5, 4-(5-{2,7-dimethyl-1H,2′H-[3,4′-biindazol]-1-yl}pyri-din-2-yl)-1λ^6-thiomorpho-line-1,1-dione]	–
300	300	50	50	200	–	–	Cc1cccc2c(-c3cccc4nn(C)cc34)nn(-c3ccc(N4CCN(C=O)CC4)nc3)c12 [compound 51, 4-(5-(2′,7-dimethyl-1H,2′H-[3,4′-biindazol]-1-yl)pyridin-2-yl)piperazine-1-carbaldehyde]	15
700	1600	200	300	800	–	–	CCc1cccc2c(-c3cccc4nn(C)cc34)nn(-c3ccc(N4CCC(C(=O)O)CC4)nc3)c12 [Example #66, 1-(5-{7-ethyl-2′-methyl-1H,2′H-[3,4′-biindazol]-1-yl}pyridin-2-yl)piperidine-4-carboxylic acid]	16
100	200	100	100	100	–	–	CCc1cccc2c(-c3cccc4nn(C)cc34)nn(-c3ccc(N4CC5C(C4)C5C(=O)O)nc3)c12 (stereo not shown) [compound 65, 3-(5-{7-ethyl-2′-methyl-1H,2′H-[3,4′-biindazol]-1-yl}pyridin-2-yl)-3-azabicy-clo[3.1.0]hexane-6-car-boxylic acid]	21
